Reference: US12102644B2, “Compounds and methods of promoting myelination” (Case Western Reserve University, priority 2019, dated 2024)
“Also recorded” adds a separate entry of the source.

What was measured:
rat CYP51 [1] = target: T1, rat CYP51 (Rattus norvegicus, UniProt Q64654); settings: rat CYP51 enzymatic activity
T1 sequence (Q64654 1-503): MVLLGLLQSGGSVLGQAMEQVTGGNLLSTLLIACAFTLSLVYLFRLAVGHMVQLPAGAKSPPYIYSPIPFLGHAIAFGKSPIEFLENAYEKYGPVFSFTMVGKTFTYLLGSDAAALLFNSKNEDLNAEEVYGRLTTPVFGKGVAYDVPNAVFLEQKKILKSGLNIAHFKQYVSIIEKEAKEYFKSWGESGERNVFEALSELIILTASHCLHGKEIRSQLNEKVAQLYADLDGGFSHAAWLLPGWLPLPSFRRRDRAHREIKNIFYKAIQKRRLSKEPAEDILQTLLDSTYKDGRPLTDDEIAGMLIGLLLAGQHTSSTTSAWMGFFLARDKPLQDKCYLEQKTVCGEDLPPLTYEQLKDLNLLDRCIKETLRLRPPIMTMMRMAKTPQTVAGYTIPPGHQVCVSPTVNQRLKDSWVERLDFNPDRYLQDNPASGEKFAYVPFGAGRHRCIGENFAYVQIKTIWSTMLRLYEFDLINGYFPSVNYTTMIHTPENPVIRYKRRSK

[2] = system: human ERα, GR, LXRβ, NFkB, NRF2, PGR, PPARδ, PPARγ, RARα, RARγ, RXRα, RXRβ, TRα, TRβ, VDR, ERRα, RORα and RORγ; assay: Luciferase reporter assays for 18 nuclear hormone receptors; assay type: cell-based; settings: 2,2-Dimethylzymosterol 5 μM, Ketoconazole 2.5 μM, TASIN-1 250 nM
Description: FIGS. 6(A-D) illustrate images and graphs showing the effect of 8,9-unsaturated sterols on nuclear hormone receptors and SREBP2 activity: a) Luciferase reporter assays were used to assess if 2,2-Dimethylzymosterol (5 μM), Ketoconazole (2.5 μM), and TASIN-1 (250 nM) modulate human ERα, GR, LXRβ, NFkB, NRF2, PGR, PPARδ, PPARγ, RARα, RARγ, RXRα, RXRβ, TRα, TRβ and VDR transcriptional activity in agonist mode and ERRα, RORα and RORγ in inverse-agonist mode. Measurements are shown as percentage of positive control, n=2 replicates per condition and n=3 replicates per condition for the controls. b) Effects of sterols (T-MAS 5 μM, FF-MAS 10 μM) and small molecules (Ketoconazole 2.5 μM, TASIN-1 100 nM) on the NR2F1-mediated activation of a NGFI-A promoter driven luciferase reporter in comparison to cells containing the reporter only (Ctrl.) or untreated. n=2 replicates per condition, with triplicate measurements per replicate. c) Effects of 2,2-dimethylzymosterol (5 μM) on the NR2C2 mediated activation of a NGFI-A promoter driven luciferase reporter in comparison to cells infected with reporter only, untreated, or treated with a previously reported positive control (all-trans retinoic acid, ATRA, 5 μM). n=2 replicates per condition, with triplicate measurements per replicate. d) LSS, DHCR7, LDLR mRNA levels measured by RT-qPCR following 24 h treatment with DMSO, Mevastatin (2.5 μM), Ro 48-8071 (500 nM), Ketoconazole (2.5 μM), TASIN-1 (100 nM), or Amorolfine (100 nM). n=2 replicates, with triplicate qPCR measurements per replicate. Experiments in panels b-d are representative of two indpedendent experiments.

NR2C2 = assay: NR2C2-mediated NGFI-A promoter luciferase reporter; assay type: cell-based; settings: 2,2-dimethylzymosterol 5 μM
Description: (§1) FIGS. 6(A-D) illustrate images and graphs showing the effect of 8,9-unsaturated sterols on nuclear hormone receptors and SREBP2 activity: a) Luciferase reporter assays were used to assess if 2,2-Dimethylzymosterol (5 μM), Ketoconazole (2.5 μM), and TASIN-1 (250 nM) modulate human ERα, GR, LXRβ, NFkB, NRF2, PGR, PPARδ, PPARγ, RARα, RARγ, RXRα, RXRβ, TRα, TRβ and VDR transcriptional activity in agonist mode and ERRα, RORα and RORγ in inverse-agonist mode. […]

[3] = system: mouse epiblast stem cell-derived OPCs; assay: In vitro OPC differentiation assay (percentage of MBP+ oligodendrocytes, high-content imaging); assay type: cell-based; settings: for formation of MBP+ oligodendrocytes from OPCs / formation of MBP+ oligodendrocytes in combination with ketoconazole: 72 h; for formation of MBP+ oligodendrocytes from OPCs: differentiation-permissive conditions; for formation of MBP+ oligodendrocytes in combination with ketoconazole: co-treatment with ketoconazole 2.5 μM
Description: To rigorously assess effects of small molecule and genetic treatments on OPCs, all treatments were assayed in two batches of epiblast stem cell-derived OPCs, and key results were confirmed using mouse primary OPCs. OPCs were generated from two separate EpiSC lines, EpiSC5 (giving rise to OPC-5 OPCs) and 12901 (giving rise to OPC-1 OPCs). EpiSC-derived OPCs were obtained using in vitro differentiation protocols and culture conditions described previously. To ensure uniformity throughout all in vitro screening experiments, EpiSC-derived OPCs were sorted to purity by fluorescence activated cell sorting at passage five with conjugated CD 140a-APC (eBioscience, 17-1401; 1:80) and NG2-AF488 (Millipore, AB[…]; 1:100) antibodies. Sorted batches of OPCs were expanded and frozen down in aliquots. OPCs were thawed into growth conditions for one passage before use in further assays. Cultures were regularly tested and shown to be mycoplasma free. EpiSC-derived OPCs were grown and expanded in poly-ornithine (PO) and laminin-coated flasks with growth medium (DMEM/F12 supplemented with N2-MAX (R&D Systems), B-27 (ThermoFisher), GlutaMax (Gibco), FGF2 ([…], R&D systems, 233-FB-025) and PDGF-AA ([…], R&D systems, 233-AA-050) before harvesting for plating. The cells were seeded onto poly-D-[…]-well CellCarrier plates (PerkinElmer) coated with laminin (Sigma, L2020; 15 μg/ml) using multi-channel pipet. For the experiment, 800,000 cells/mL stock in differentiation medium (DMEM/F12 supplemented with N2-MAX and B-27) was prepared and stored on ice for 2 h. Then, 40,000 cells were seeded per well in differentiation medium and allowed to attach for 30 min before addition of drug. For dose-response testing of all molecules except sterols, a 1000× compound stock in dimethyl sulphoxide (DMSO) was added to assay plates with 0.1 μL solid pin multi-blot replicators (V & P Scientific; VP 409), resulting in a final primary screening concentration of 1×. Sterols were added to cells as an ethanol solution (0.2% final ethanol concentration). Positive control wells (ketoconazole, 2.5 μM) and DMSO vehicle controls were included in each assay plate. Cells were incubated under standard conditions (37° C., 5% CO2) for 3 days and fixed with 4% paraformaldehyde (PFA) in phosphate buffered saline (PBS) for 20 min. Fixed plates were washed with PBS (200 μL per well) twice, permeabilized with 0.1% Triton X-100 and blocked with 10% donkey serum (v/v) in PBS for 40 min. Then, cells were labelled with MBP antibodies (Abcam, ab7349; 1:200) for 16 h at 4° C. followed by detection with Alexa Fluor conjugated secondary antibodies (1:500) for 45 min. Nuclei were visualized by DAPI staining (Sigma; 1 μg/ml). During washing steps, PBS was added using a multi-channel pipet and aspiration was performed using Biotek EL406 washer dispenser (Biotek) equipped with a 96-well aspiration manifold. Plates were imaged on the Operetta High Content Imaging and Analysis system (PerkinElmer) and a set of 6 fields captured from each well resulting in an average of 1200 cells being scored per well. Analysis (PerkinElmer Harmony and Columbus software) began by identifying intact nuclei stained by DAPI; that is, those traced nuclei that were larger than 300 μm^2 in surface area. Each traced nucleus region was then expanded by 50% and cross-referenced with the […] (MBP) stain to identify oligodendrocyte nuclei, and from this the percentage of oligodendrocytes was calculated. In some experiments, the total process length of MBP^+ oligodendrocytes was calculated as previously described.

[4] = system: EpiSC-derived OPCs on microfibers; assay: Oligodendrocyte formation on electrospun microfibers; assay type: cell-based, mouse; settings: 14 days
Description: A 12-well plate containing Mimetex aligned scaffold (microfiber plate, AMSBIO, AMS.TECL-006-1X, Electrospun poly-L-lactide Scaffold, […] cell crown inserts) was prepared as previously described. Briefly, inserts were sterilized with 70% ethanol and washed with PBS before being coated with polyornithine and laminin. After laminin coating, 100,000 cells/mL of EpiSC-derived OPCs were plated in differentiation medium. After 24 h the media was replaced with fresh media containing small molecule treatments. Every 48 h the media was replaced with fresh compound containing media for a total of 14 days. Plates were fixed with 4% PFA, permeabilized with 0.1% Triton X-100, and blocked with 10% donkey serum (v/v) in PBS for 60 min. Plates were stained for MBP (Abcam, ab7349; 1:100) and DAPI staining (Sigma; 5 μg/ml). After staining, the inserts were moved into new 12-well plate and covered with 2 mL of PBS before imaging in Operetta high content Imaging and analysis system. Plates were imaged on the Operetta High Content Imaging and Analysis system (PerkinElmer) and a set of 8 fields captured from each well resulting in an average of 45,000 cells being scored per well. Analysis (PerkinElmer Harmony and Columbus software) identified intact nuclei stained by DAPI and calculated the MBP signal intensity per cell per well. Microfiber insert tracking images were taken using a Leica DMi8 with a 20× Dry/NA 0.40 objective. Microfiber plate inserts were mounted using Flouromount-G (SouthernBiotech) and allowed to partially harden before coverslips were added and the insert ring was removed. Confocal images were obtained on a Leica SP8 confocal scanning microscope, with 40× oil/NA 1.30 objective. Confocal stacks of 0.336 μm z-steps were taken at 1024×1024. Each fluorophore was excited sequentially and all contrast and brightness changes were applied consistently between images.

EBP = target: T2, EBP (Mus musculus, UniProt P70245); assay: EBP enzymatic assay (GC/MS); assay type: biochemical; settings: small molecules 10 μM, zymostenol 25 μM, 2 h
T2 construct: active EBP was obtained from mouse microsomes; from tissue
T2 sequence (P70245 1-230): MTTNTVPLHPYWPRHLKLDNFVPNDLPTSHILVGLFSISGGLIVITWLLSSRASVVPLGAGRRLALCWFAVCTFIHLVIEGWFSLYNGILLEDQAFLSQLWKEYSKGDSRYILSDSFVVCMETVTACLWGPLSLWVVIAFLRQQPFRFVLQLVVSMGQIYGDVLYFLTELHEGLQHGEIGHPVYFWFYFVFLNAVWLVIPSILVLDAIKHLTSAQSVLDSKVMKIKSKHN

NR2F1 = assay: NR2F1-mediated NGFI-A promoter luciferase reporter; assay type: cell-based; settings: Ketoconazole 2.5 μM, TASIN-1 100 nM
Description: as §1

rat CYP51 [5] = target: T1, rat CYP51; assay: biochemical
[6] = system: sterol levels in OPCs (cholesterol biosynthesis pathway); assay: GC/MS-based sterol profiling in OPCs; assay type: cell-based, mouse; settings: 24 h treatment
LPC-lesioned spinal cord = assay: LPC focal demyelination of spinal cord, remyelination histology; assay type: in vivo, mouse; settings: ifenprodil 10 mg per kg or tamoxifen 2 mg per kg, daily i.p., 8 days from day 4 after lesion

CC(=O)N1CCN(c2ccc(OC[C@H]3CO[C@@](Cn4ccnc4)(c4ccc(Cl)cc4Cl)O3)cc2)CC1 (stereo in doubt) [S-trans-Ketoconazole]
inhibition of mammalian CYP51 in vitro (rat CYP51 [1]): strikingly less effective at inhibiting mammalian CYP51

CC(C)=CCC[C@@H](C)[C@H]1CC[C@H]2C3=C(CC[C@]12C)[C@@]1(C)CC(C)(C)[C@H](O)C[C@@H]1CC3 [2,2-dimethylzymosterol]
agonist activity in NHR reporter assays [2]: no molecule showed significant agonist activity in any assay
NR2C2-mediated reporter activation (NR2C2): ineffective
formation of MBP+ oligodendrocytes from OPCs [3]: maximally potent enhancers of oligodendrocyte formation among the 8,9-unsaturated sterols tested
EC50 ([3]; OPC-5 and OPC-1, 72 h, read-out: EC50 for enhancing oligodendrocyte formation): 1000 to 2000 nM
formation of MBP+ oligodendrocytes in combination with ketoconazole [3]: no further benefit over ketoconazole alone

COc1ccc(S(=O)(=O)N2CCC(N3CCC(C)CC3)CC2)cc1 [TASIN-1]
MBP+ oligodendrocyte tracking along and wrapping of microfibers [4]: significantly enhanced MBP+ oligodendrocyte tracking along and wrapping of the microfibers
agonist activity in NHR reporter assays [2]: no molecule showed significant agonist activity in any assay
inhibition of EBP enzymatic activity (EBP): clear inhibition
NR2F1-mediated reporter activation (NR2F1): ineffective
formation of MBP+ oligodendrocytes from OPCs [3]: enhanced formation of MBP^+ oligodendrocytes

CCC(C)(C)c1ccc(CC(C)CN2C[C@@H](C)O[C@@H](C)C2)cc1 (stereo partly drawn) [amorolfine, Amorolfine]
MBP+ oligodendrocyte tracking along and wrapping of microfibers [4]: significantly enhanced MBP+ oligodendrocyte tracking along and wrapping of the microfibers
formation of MBP+ oligodendrocytes from OPCs [3]: enhanced formation of MBP^+ oligodendrocytes

OC(Cn1cncn1)(Cn1cncn1)c1ccc(F)cc1F [fluconazole, Fluconazole]
inhibition of mammalian CYP51 in vitro (rat CYP51 [1]): did not inhibit mammalian CYP51 in vitro

CC(=O)N1CCN(c2ccc(OCC3COC(Cn4ccnc4)(c4ccc(Cl)cc4Cl)O3)cc2)CC1 (stereo not drawn) [ketoconazole, Ketoconazole]
MBP+ oligodendrocyte tracking along and wrapping of microfibers [4]: significantly enhanced MBP+ oligodendrocyte tracking along and wrapping of the microfibers
IC50 (rat CYP51 [5]): 300 to 700 nM
agonist activity in NHR reporter assays [2]: no molecule showed significant agonist activity in any assay
NR2F1-mediated reporter activation (NR2F1): ineffective
formation of MBP+ oligodendrocytes from OPCs [3]: enhanced formation of MBP^+ oligodendrocytes

CC/C(=C(\c1ccccc1)c1ccc(OCCN(C)C)cc1)c1ccccc1 [tamoxifen, Tamoxifen]
accumulation of sterol intermediates in OPCs (enzyme inhibition in OPCs, e.g. EBP) [6]: induced accumulation of zymostenol and zymosterol and decreased basal sterol levels; also recorded: inhibit EBP in OPCs
inhibition of EBP enzymatic activity (EBP): clear inhibition
remyelination of LPC lesion (LPC-lesioned spinal cord): remyelination was widespread throughout the lesion
formation of MBP+ oligodendrocytes from OPCs [3]: enhance the formation of oligodendrocytes with comparable potency
formation of MBP+ oligodendrocytes in combination with ketoconazole [3]: did not enhance differentiation above levels seen for ketoconazole alone
